Assay results from publication PMC10631261 (Chemical Science, 2023).
Read-outs that look alike come from different tables or passages of the source.

Columns and labels:
SLC2A1 = assay: qRT-PCR of SLC2A1 expression in Hep3B cells; assay type: cell-based, human; settings: for increase of SLC2A1 levels: qPCR, relative to DMSO
Procedure: (§1) 4. Methods for cell studies […]
(§2) in Minimum Essential Medium (MEM, GIBCO) with 10% fetal bovine serum (FBS, BI), 100 U/mL penicillin and 100 μg/mL streptomycin (1 × P/S, NCM Biotech). […]
(§3) and 100 μg/mL streptomycin (1 × P/S, NCM Biotech).
(§4) Quantitative PCR Analysis of Gene Expression […]
(§5) treated with vehicle (DMSO) or an inhibitor (at the concentrations indicated) for 12 h. Total RNA was isolated from cells and tissues using Trizol regents (Vazyme, China). 1 μg RNA was used for reverse transcription using HiScript III RT SuperMix for qPCR (Vazyme, China). cDNAs were amplified in a ChamQ Universal SYBR qPCR Master Mix (Vazyme, China). Quantitative PCR (qPCR) was performed on […]
(§6) a ABI QuantStudio 3 system.
(§7) The relative amount of mRNA was calculated after
(§8) 3T3-L1 derived adipocytes. […]

EPO = assay: qRT-PCR of EPO expression in Hep3B cells; assay type: cell-based, human; settings: for upregulation of EPO: qPCR, relative to DMSO
Procedure: as §1, §2, §3, §4, §5, §6, §7, §8

EGLN3 [1] = assay: qRT-PCR of EGLN3 expression in Hep3B cells; assay type: cell-based, human
Procedure: as §1, §2, §3, §4, §5, §6, §7, §8

FIH [2] = target: T1, FIH (Homo sapiens, UniProt Q9NWT6); settings: ESI Table S1; ref 19 (ESI); cited from earlier work
T1 construct: made in house
T1 sequence (Q9NWT6 whole entry): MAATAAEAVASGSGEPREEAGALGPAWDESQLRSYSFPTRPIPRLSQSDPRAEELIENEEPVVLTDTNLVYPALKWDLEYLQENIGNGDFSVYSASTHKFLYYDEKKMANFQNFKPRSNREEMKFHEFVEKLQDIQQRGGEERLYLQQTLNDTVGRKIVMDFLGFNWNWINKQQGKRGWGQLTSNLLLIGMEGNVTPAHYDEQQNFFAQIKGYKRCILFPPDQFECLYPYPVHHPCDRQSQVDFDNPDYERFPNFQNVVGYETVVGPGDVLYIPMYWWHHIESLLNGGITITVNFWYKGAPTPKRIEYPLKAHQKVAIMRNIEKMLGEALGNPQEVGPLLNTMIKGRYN

CA9 = assay: qRT-PCR of CA9 expression in Hep3B cells; assay type: cell-based, human; settings: for upregulation of CA9: qPCR, relative to DMSO
Procedure: as §1, §2, §3, §4, §5, §6, §7, §8

EGLN3 [3] = assay: qRT-PCR of EGLN3 expression in 786-O cells; assay type: cell-based; settings: VHL-deficient 786-O cells
Procedure: as §1, §2, §3, §4, §5, §6, §7, §8

[4] = tested on: 3T3-L1 derived adipocytes; assay: Cellular triglyceride (TG) colorimetric assay; assay type: cell-based; settings: 100 μM
Procedure: as §1, §2
and 100 μg/mL streptomycin (1 × P/S, NCM Biotech). […]
3T3-L1 derived adipocytes.
10% newborn calf serum (NCS, GIBCO), 100 U/mL penicillin and 100 μg/mL streptomycin (1 × P/S, NCM […]
The 3T3-L1 cells were strictly subcultured before they
Subcultures of 3T3 -L1 cells were routinely cultured in DMEM medium containing 10% NCS for two days, and then the cells were cultured in DMEM containing 10% FBS, 0.5 mM 3 -isobutyl-1-methylxanthine, 1 μM dexamethasone, 10 μg/mL insulin and 2 μM rosiglitazone for another two days. Subsequently, the cells were cultured in DMEM containing 10% FBS and 10 μg/mL insulin for two days. After these procedures, the cells were maintained in […]
To investigate the effect of inhibitors on adipocytes, 3T3-L1-derived adipocytes were treated with vehicle (DMSO) or with an inhibitor (at the concentrations indicated) for 48 h. […]
Cellular TG level assay for 3T3 -L1 derived adipocytes.
The 3T3-L1-derived adipocytes were washed with PBS, then the cells were lysed. And then, the cellular TG level was determined by using a cellular triglyceride assay kit (Applygen, China).
Oil Red O staining for 3T3-L1 derived adipocytes.

JMJD5 = JMJD5 (Homo sapiens, UniProt Q8N371); assay: biochemical; settings: read-out: JMJD5 IC50
JMJD5, sequence (Q8N371 whole entry, the tested form may be a part): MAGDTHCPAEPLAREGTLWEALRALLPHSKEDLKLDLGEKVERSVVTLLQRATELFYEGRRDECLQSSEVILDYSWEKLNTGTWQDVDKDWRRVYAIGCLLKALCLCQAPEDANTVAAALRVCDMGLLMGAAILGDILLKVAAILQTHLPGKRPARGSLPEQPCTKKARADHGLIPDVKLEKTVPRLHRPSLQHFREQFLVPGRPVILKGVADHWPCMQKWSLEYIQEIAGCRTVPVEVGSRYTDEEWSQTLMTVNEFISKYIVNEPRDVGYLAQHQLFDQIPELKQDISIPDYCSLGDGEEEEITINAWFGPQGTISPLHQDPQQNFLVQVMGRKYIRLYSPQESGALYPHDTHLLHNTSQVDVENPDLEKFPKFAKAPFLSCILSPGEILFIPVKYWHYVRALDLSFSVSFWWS
From the text: (§9) To investigate the potential of BNS for selective FIH inhibition, its selectivity was investigated with respect to other 2OG-dependent protein oxidising enzymes, that is PHD2, Jumonji-C domain-containing protein 5 (JMJD5), aspartate/asparagine-β-hydroxylase (AspH) and KDM4A, using reported SPE-MS inhibition assays.[58,61,69,70] In addition to PHD2 and KDM4A, we included AspH and JMJD5 in our selectivity studies, because AspH, like FIH, catalyses protein aspartate- and asparagine-residue hydroxylation (although in epidermal growth factor-like domains),[71,72] and because JMJD5 is structurally closely related to FIH.[73,74]
(§10) 3. Biochemical procedures
(§11) Protein production and purification
(§12) PAGE analysis) according to established procedures.
(§13) FIH, PHD2, AspH, JMJD5 and KDM4A inhibition assays
(§14) The in vitro FIH,1, 2 PHD2,1 AspH,38 JMJD536 and KDM4A39 inhibition assays were performed as […]
(§15) KDM4A). Synthetic peptide substrates were used: HIF-1α C-terminal transactivation domain fragment […]
(§16) H3Lys9 bearing three methyl groups at the N ϵ position, H3Lys4 substituted by an Ala and H3Lys14 substituted by an Ile residue) for KDM4A.39 Peptides were prepared as C-terminal amides by GL Biochem (Shanghai) Ltd. Peptide hydroxylation in the case of FIH, PHD2, AspH and JMJD5 (+16 Da mass shift) or peptide demethylation in the case of KDM4A ( -14 Da mass shift) was monitored by SPE-MS. […]

AspH [5] = target: T2, AspH (Homo sapiens, UniProt Q12797); assay: biochemical
T2 sequence (Q12797 315-758): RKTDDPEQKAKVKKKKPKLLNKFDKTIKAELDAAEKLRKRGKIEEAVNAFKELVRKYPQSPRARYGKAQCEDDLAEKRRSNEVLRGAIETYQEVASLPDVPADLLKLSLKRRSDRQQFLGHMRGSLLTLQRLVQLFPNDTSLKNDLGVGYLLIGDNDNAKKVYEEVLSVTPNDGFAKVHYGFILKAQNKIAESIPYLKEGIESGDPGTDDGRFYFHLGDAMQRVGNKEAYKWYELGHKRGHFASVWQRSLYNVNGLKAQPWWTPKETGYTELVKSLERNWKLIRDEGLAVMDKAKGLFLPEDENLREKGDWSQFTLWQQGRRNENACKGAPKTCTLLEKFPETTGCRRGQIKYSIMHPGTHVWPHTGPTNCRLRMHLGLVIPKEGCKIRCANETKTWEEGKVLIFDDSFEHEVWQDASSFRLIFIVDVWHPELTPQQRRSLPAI
From the text: as §9, §10, §11, §12, §13, §14, §15, §16

KDM4A = KDM4A (Homo sapiens, UniProt O75164); assay: biochemical; assay type: biochemical
KDM4A, sequence (O75164 1-359): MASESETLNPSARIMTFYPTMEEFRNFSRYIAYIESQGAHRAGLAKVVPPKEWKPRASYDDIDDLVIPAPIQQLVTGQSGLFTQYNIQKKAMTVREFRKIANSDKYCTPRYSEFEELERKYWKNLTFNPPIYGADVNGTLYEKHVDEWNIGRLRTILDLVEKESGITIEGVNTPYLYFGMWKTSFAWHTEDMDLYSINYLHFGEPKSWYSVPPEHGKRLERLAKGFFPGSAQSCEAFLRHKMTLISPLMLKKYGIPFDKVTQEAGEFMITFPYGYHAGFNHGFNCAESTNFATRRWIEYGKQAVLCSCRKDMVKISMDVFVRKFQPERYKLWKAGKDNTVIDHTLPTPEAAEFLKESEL
From the text: as §9, §10, §11, §12, §13, §14, §15, §16

PHD2 = PHD2 (Homo sapiens, UniProt Q9GZT9); assay: biochemical
PHD2, sequence (Q9GZT9 181-426): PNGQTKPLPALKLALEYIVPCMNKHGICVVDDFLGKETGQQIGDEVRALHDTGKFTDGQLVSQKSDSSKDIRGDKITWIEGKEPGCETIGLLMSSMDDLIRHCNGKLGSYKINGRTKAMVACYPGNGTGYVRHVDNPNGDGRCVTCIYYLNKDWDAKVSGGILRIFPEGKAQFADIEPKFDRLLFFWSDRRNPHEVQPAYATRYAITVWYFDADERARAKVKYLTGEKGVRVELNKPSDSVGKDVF
Procedure: as §10, §11, §12, §13, §14, §15, §16

FIH [6] = target: T1, FIH; assay: SPE-MS FIH inhibition assay; assay type: biochemical
Procedure: as §11, §12, §13, §14, §15, §16

AspH [7] = target: T2, AspH; settings: SPE-MS; ref [58]; cited from earlier work

**Q.** For `O=C(O)Cc1cs/c(=N\C(=O)C2CCCN2S(=O)(=O)c2ccccc2)n1O` (stereo not shown) (hydrate or solvate) [compound 28], which melting point is on record?
**A.** > 190 °C (dec.)

**Q.** For `O=C(O)Cc1csc(=NC(=O)C2CCN(S(=O)(=O)c3ccc(Cl)cc3)C2)n1O` (stereo not shown) (hydrate or solvate) [compound 35], which melting point is on record?
**A.** 195 to 197 °C

**Q.** For `O=C(O)Cc1cs/c(=N\C(=O)CNC(=O)c2ccccc2)n1O` (hydrate or solvate) [compound 16], which melting point is on record?
**A.** 181 to 183 °C

**Q.** Which melting point does the source give for `O=C(O)Cc1cs/c(=N\C(=O)CCS(=O)(=O)c2ccccc2)n1O` (hydrate or solvate) [compound 15] here?
**A.** 182 to 184 °C

**Q.** For `Cc1nc(C(=O)NCC(=O)O)c(O)c2ccc(Oc3ccccc3)cc12` [FG-4592], which “increase of SLC2A1 levels” value (SLC2A1) is on record?
**A.** ~4 fold

**Q.** And the “upregulation of EPO” value (EPO)?
**A.** ~7 fold

**Q.** What about the “effect on Hep3B EGLN3 levels” value (EGLN3 [1]; compound alone) of the same compound?
**A.** no effect

**Q.** What about the IC50 (FIH [2]) of the same compound?
**A.** > 100 µM

**Q.** What about the “upregulation of CA9” value (CA9) of the same compound?
**A.** ~8 fold

**Q.** For `COC(=O)C(=O)N[C@H](Cc1ccccc1)C(=O)OC` [DM-NOFD, dimethyl N-oxalyl-D-phenylalanine], which “increase of SLC2A1 levels” value (SLC2A1) is on record?
**A.** ~1.3 fold

**Q.** What about the “SLC2A1 gene expression in combination with FG-4592” value (SLC2A1; with FG-4592) of the same compound?
**A.** no synergistic effect

**Q.** And the “upregulation of EPO” value (EPO)?
**A.** no response

**Q.** What about the “EPO levels in combination with FG-4592 compared with FG-4592 alone” value (EPO; with FG-4592, to a lesser extent than CA9) of the same compound?
**A.** increase

**Q.** And the “increase of EGLN3 expression relative to DMSO” value (EGLN3 [1]; 50 μM, 12 h, qRT-PCR)?
**A.** ~1.8 fold

**Q.** What about the “EGLN3 upregulation on co-administration with FG-4592 relative to compound alone” value (EGLN3 [1]; with FG-4592) of the same compound?
**A.** no additional effect

**Q.** And the “effect on EGLN3 gene expression” value (EGLN3 [3])?
**A.** upregulation of EGLN3

**Q.** And the “effect on TG levels” value [4]?
**A.** no effect

**Q.** What about the “upregulation of CA9” value (CA9) of the same compound?
**A.** no response

**Q.** And the “CA9 levels in combination with FG-4592 compared with FG-4592 alone” value (CA9; with FG-4592)?
**A.** increase

**Q.** With `O=C(O)Cc1csc(=NC(=O)C2CCN(S(=O)(=O)C3CCCC3)C2)n1O` (stereo not shown) [compound 43] as the compound, how does the IC50 (JMJD5) read?
**A.** 17.4 ± 6 µM

**Q.** What about the IC50 (AspH [5]) of the same compound?
**A.** 35.5 ± 3.2 µM

**Q.** What about the IC50 (KDM4A) of the same compound?
**A.** > 100 µM

**Q.** What about the IC50 (PHD2) of the same compound?
**A.** 9.9 ± 0.5 µM

**Q.** And the melting point?
**A.** 177 to 180 °C

**Q.** And the IC50 (FIH [6])?
**A.** 0.81 ± 0.18 µM

**Q.** For `O=C(O)CNC(=O)C(=O)O` [NOG, N-oxalylglycine, reference compound], which IC50 (KDM4A; 0.15 μM KDM4A, 10.0 μM 2OG, 10.0 μM H3 1–15 K9me3, SPE-MS) is on record?
**A.** 22.1 ± 1.1 µM

**Q.** What about the IC50 (AspH [7]) of the same compound?
**A.** 1.1 ± 0.3 µM

**Q.** What about the IC50 (FIH [6]) of the same compound?
**A.** 0.36 ± 0.03 µM

**Q.** With `O=C(O)Cc1cs/c(=N\C(=O)CS(=O)(=O)c2ccccc2)n1O` (hydrate or solvate) [compound 4] as the compound, how does the melting point read?
**A.** 179 to 181 °C

**Q.** With `O=C(O)Cc1csc(=NC(=O)C2CCN(S(=O)(=O)c3cccs3)C2)n1O` (stereo not shown) (hydrate or solvate) [compound 41] as the compound, how does the melting point read?
**A.** 178 to 180 °C

**Q.** Which melting point does the source give for `CC(C(=O)O)c1cs/c(=N\C(=O)CS(=O)(=O)c2ccccc2)n1O` (stereo not shown) (hydrate or solvate) [compound 6] here?
**A.** 204 to 207 °C
